Experimental data from ChEMBL document CHEMBL1201862, “PubChem BioAssay data set” (2004).
Active and inactive are the calls of the source. Cut-off read from the data, not from the text of the source: actives have a measured IC50 and inactives only a lower limit.

Molecular target: Envelope glycoprotein gp160 (Human immunodeficiency virus 1, UniProt Q6QLK5)
Test: cell-free HIV fusion peptide-binding blockers – biochemical, uHTS, fluorescence dequenching, […] (AID 1986)

Chain of Envelope glycoprotein gp160 (Q6QLK5 whole entry, the tested form may be a part): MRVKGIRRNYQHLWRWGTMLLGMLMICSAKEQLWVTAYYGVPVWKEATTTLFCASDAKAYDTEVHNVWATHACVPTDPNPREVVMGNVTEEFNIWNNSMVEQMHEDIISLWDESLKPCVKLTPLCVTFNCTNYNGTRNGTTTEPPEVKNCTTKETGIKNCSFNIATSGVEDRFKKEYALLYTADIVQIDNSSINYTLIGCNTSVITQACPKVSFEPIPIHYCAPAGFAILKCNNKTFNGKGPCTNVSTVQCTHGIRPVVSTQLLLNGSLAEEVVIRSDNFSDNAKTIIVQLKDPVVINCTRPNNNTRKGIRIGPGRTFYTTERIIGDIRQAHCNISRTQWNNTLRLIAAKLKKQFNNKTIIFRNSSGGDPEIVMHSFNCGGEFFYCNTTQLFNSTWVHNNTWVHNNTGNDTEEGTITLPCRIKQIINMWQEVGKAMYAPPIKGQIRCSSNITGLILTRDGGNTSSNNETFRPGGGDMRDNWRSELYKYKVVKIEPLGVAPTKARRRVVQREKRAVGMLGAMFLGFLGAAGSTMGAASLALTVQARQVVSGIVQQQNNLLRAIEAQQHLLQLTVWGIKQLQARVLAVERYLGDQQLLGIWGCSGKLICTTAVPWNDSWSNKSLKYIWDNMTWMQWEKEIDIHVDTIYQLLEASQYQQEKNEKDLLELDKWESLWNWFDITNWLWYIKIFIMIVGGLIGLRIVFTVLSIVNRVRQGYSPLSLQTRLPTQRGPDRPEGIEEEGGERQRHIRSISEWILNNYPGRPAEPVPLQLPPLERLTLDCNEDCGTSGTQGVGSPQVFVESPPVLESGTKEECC

SMILES | IC50
Cc1nn(CCc2nn[nH]n2)c2nc(-c3ccc(C4CCCCC4)cc3)cc(C(F)(F)F)c12 | 12.4 µM (active)
O=C(O)c1[nH]c2ccccc2c1C(c1c(F)cccc1Cl)c1c(C(=O)O)[nH]c2ccccc12 | 13.4 µM (active)
